SMILES strings stand for the structures. Residue numbers refer to the chain shown, from its start. Where two headings read alike, the source gives them in different places.

One may read the IC50 as the point on the concentration scale where inhibition reaches its midpoint.

Experiment [1] deals with MV4-11 (Leukemia). As to the kind of experiment: WST-1 anticancer cell proliferation assay, MV4-11. The experiment is classed as cell-based. The protocol: Anticancer activity was tested against several standard cancer cell lines including brain, breast, Kaposi sarcoma, leukemia, lung, melanoma, tenosynovial giant cell tumor, ovarian, pancreatic, colon and prostate cancer. Cells were trypsinized and plated into 96 well plates in 50 μl of media and incubated overnight. The next day approximately 18 hours after plating, 50 μl of media containing the required flavonoid-based pharmaceutical composition was added per well. Cells were plated at a density so that 72 hours post drug addition, the cells will be in log phase (500)-2000 cells/well). The compounds and extracts were solubilized in Dimethyl sulfoxide (DMSO). The cells are allowed to proliferate for 72 hours 37° C. in humidified atmosphere of 5% CO2. The experiment is terminated using WST-1 (Roche®) 10 μl per well and absorbance is read at 450 nm %690 nm. The effect of drugs on growth is assessed as percent of cell viability. The IC50 values were determined from the extract dose versus control growth curves using Graphpad Prism® software. All experiments were carried out in duplicate and the mean results determined.

Experiment [2] deals with T1, FLT3 (Homo sapiens, UniProt P36888).
T1 construct: made in house
T1 sequence (P36888 27-993): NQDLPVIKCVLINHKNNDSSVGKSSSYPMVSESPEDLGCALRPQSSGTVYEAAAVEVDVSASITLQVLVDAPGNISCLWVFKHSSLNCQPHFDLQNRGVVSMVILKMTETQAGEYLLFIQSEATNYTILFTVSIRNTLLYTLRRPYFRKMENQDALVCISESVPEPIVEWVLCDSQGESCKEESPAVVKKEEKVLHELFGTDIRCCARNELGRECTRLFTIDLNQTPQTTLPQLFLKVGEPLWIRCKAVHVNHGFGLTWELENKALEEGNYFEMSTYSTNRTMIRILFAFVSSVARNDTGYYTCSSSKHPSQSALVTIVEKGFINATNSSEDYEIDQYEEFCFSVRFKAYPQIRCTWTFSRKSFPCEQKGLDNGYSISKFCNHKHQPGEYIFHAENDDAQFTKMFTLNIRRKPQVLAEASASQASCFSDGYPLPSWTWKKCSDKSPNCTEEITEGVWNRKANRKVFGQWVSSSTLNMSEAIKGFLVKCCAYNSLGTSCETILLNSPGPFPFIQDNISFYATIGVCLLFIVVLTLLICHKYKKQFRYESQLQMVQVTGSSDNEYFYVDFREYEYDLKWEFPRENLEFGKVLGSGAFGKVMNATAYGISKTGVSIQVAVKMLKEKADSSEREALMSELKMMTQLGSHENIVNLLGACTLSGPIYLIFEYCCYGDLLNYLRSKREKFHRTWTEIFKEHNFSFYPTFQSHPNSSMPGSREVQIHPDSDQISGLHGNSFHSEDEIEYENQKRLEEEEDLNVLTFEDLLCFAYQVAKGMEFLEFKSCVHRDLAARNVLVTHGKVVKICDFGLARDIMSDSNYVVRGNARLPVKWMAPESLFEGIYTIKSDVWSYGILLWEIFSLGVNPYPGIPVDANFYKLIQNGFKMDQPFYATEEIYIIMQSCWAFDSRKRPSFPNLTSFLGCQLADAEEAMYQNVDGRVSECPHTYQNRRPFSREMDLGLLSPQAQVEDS
It counts as binding. On the procedure: (§1) Cannabis flavonoids and their analogs were subjected to kinase inhibition assay. The compounds were first screened at a single concentration of 10 μM in the primary assay. […] To determine the kd or IC50 values, competition binding assays were established, authenticated and executed as described previously. […] See also, Karaman et al., “A Quantitative Analysis Of Kinase Inhibitor Selectivity”, Nat. Biotechnol. […] For most assays, kinases were fused to T7 phage strains (Fabian, supra) and for the other assays, kinases were produced in HEK-293 cells after which they were tagged with DNA for quantitative PCR detection. In general, full-length constructs were used for small, single domain kinases, and catalytic domain constructs for large multi-domain kinases. […] The liganded beads were blocked with excess biotin and washed with blocking buffer (SeaBlock (Pierce), 1% BSA, 0.05% Tween 20, 1 mM DTT) to remove unbound ligand and to reduce non-specific phage binding. […] All reactions were performed in polypropylene 384-well plates in a final volume of 0.04 ml. […] The kinase concentration in the eluates was measured by quantitative PCR. An illustration of the kinase interaction process is presented below. Kd/IC50 values were determined using a standard dose response curve using the hill equation. Curves were fitted using a non-linear least square fit with the Levenberg-Marquardt algorithm.

Experiment [3] deals with T2, FLT3(D835Y) (Homo sapiens, UniProt P36888, D835Y).
T2 construct: made in house
T2 sequence (P36888 27-993 D835Y): T1 sequence (P36888 27-993) with D809Y
It counts as binding. The protocol: as §1

[4] abbreviates: Table 4, read-out: Acute Myeloid Leukemia cell lines MV4-11 IC50.
The mark [5] stands for this setting: Table 4, read-out: Acute Myeloid Leukemia Kinases FLT3 IC50.
Setting [6] is: Table 4, read-out: Acute Myeloid Leukemia Kinases FLT3-D835Y IC50.
The mark [7] stands for this setting: Table 1 kinase panel, read-out: IC50 (nM) FLT3.
The mark [8] stands for this setting: Table 1 kinase panel, read-out: IC50 (nM) FLT3(D835Y).
The mark [9] stands for this setting: Table 3, 72 hours, WST-1, read-out: IC50 (μM) MV4-11 (Leukemia).

`O=c1c(O)c(-c2ccc(O)c(O)c2)oc2cc(O)ccc12` [FBLGS-83]: the IC50 in experiment [1] (setting [4]) was found to be 1.6 µM; in experiment [2] (setting [5]), 578 nM; in experiment [3] (setting [6]), 82 nM.

Consider `Cc1cc2oc(-c3cccc(N)c3)cc(=O)c2c([N+](=O)[O-])c1C` [FBLGS-76], for which the figures for the IC50 in experiment [1] (setting [4]), in experiment [2] (setting [5]) and in experiment [3] (setting [6]) were 1.9 µM, 870 nM and 680 nM, respectively.

Turning to `COc1cc(-c2oc3cc(O)ccc3c(=O)c2O)ccc1O` [FBLGS-81], the IC50 was determined as 0.9 µM in experiment [1] (setting [4]), 1.9 nM in experiment [2] (setting [5]) and 0.9 nM in experiment [3] (setting [6]).

As for `COc1cc(O)c2c(=O)c(O)c(-c3ccc(O)c(O)c3)oc2c1` [FBLGS-78], the IC50 in experiment [1] (setting [4]) is 5.62 µM; in experiment [2] (setting [5]), 307 nM; in experiment [3] (setting [6]), 149 nM.

For the compound `COc1ccc(C2CC(=O)c3c(O)cc(O)cc3O2)cc1O` (stereo not drawn) [FBLGS-74], the IC50 was greater than 100 µM in experiment [1] (setting [4]), 16600 nM in experiment [2] (setting [5]) and 8580 nM in experiment [3] (setting [6]).

Turning to `COc1cc(-c2cc(=O)c3c(O)c(OC)c(OC)cc3o2)ccc1O` [FBLGS-85], the results for the IC50 in experiment [1] (setting [4]), in experiment [2] (setting [5]) and in experiment [3] (setting [6]) were 0.9 µM, 50 nM and 22 nM, respectively.

With `COc1cc(-c2cc(=O)c3c(O)cc(O)c(C/C=C(\C)CCC=C(C)C)c3o2)ccc1O` [FBL-03C], the IC50 in experiment [2] (setting [7]) and in experiment [3] (setting [8]) was greater than 20000 nM each time.

For the compound `COc1ccc(-c2cc(=O)c3c(O)c(C/C=C(\C)CCC=C(C)C)c(O)cc3o2)cc1OC` [FBL-03D], the IC50 in experiment [2] (setting [7]) and in experiment [3] (setting [8]) was greater than 30000 nM each time.

On to `COc1cc(-c2cc(=O)c3c(O)c(OC)c(O)cc3o2)ccc1O` [FBLGS-86], for which the IC50 in experiment [1] (setting [4]) was found to be 2.2 µM; in experiment [2] (setting [5]), 74 nM; in experiment [3] (setting [6]), 43 nM.

`COc1cc(-c2cc(=O)c3c(O)cc(O)c(CC=C(C)C)c3o2)ccc1O` [FBL-03G]: the IC50 in experiment [1] (setting [9]) was 3.1 µM; in experiment [2] (setting [7]), 44 nM; in experiment [3] (setting [8]), 45 nM.

With `COc1cc(-c2cc(=O)c3c(O)c(C/C=C(\C)CCC=C(C)C)c(O)cc3o2)ccc1O` [FBL-03A], the IC50 in experiment [2] (setting [7]) and in experiment [3] (setting [8]) was greater than 20000 nM throughout.

Consider `COc1cc(O)c2c(=O)c(O)c(-c3ccc(O)c(O)c3)oc2c1` [FBLGS-79], for which the results for the IC50 in experiment [1] (setting [4]), in experiment [2] (setting [5]) and in experiment [3] (setting [6]) were 3.41 µM, 25 nM and 13 nM, respectively.

Turning to `COc1cc(O)c2c(=O)c(O)c(-c3ccc(O)c(OC)c3)oc2c1` [FBLGS-80], the IC50 amounted to 5.86 µM in experiment [1] (setting [4]), 60 nM in experiment [2] (setting [5]) and 27 nM in experiment [3] (setting [6]).

Regarding `O=C1CC(c2ccc(O)c(O)c2)Oc2cc(O)cc(O)c21` (stereo not drawn) [FBLGS-82], the 50% inhibitory concentration (IC50) in experiment [1] (setting [4]) was greater than 10 µM; in experiment [2] (setting [5]), 17400 nM; in experiment [3] (setting [6]) it was 11000 nM.

`O=c1cc(-c2ccc(O)c(O)c2)oc2cc(O)cc(O)c12` [FBLGS-77]: the IC50 in experiment [1] (setting [4]) was determined as 7.21 µM; in experiment [2] (setting [5]), 1320 nM; in experiment [3] (setting [6]), 577 nM.

Consider `COc1cc(-c2cc(=O)c3c(O)c(CC=C(C)C)c(O)cc3o2)ccc1O` [FBL-03B], for which the figures for the IC50 in experiment [1] (setting [9]), in experiment [2] (setting [7]) and in experiment [3] (setting [8]) were 1.43 µM, 41.9 nM and 12.7 nM, respectively.

For `O=c1c(O)c(-c2ccc(O)c(O)c2)oc2cc(O)cc(O)c12` [FBLGS-84], the IC50 in experiment [1] (setting [4]) came out at 6.3 µM; in experiment [2] (setting [5]), 822 nM; in experiment [3] (setting [6]) it was 194 nM.

`O=c1cc(-c2ccccc2)oc2cc(O)cc(O)c12` [FBLGS-75]: the figures for the IC50 in experiment [1] (setting [4]), in experiment [2] (setting [5]) and in experiment [3] (setting [6]) were 4.35 µM, 220 nM and 76 nM, respectively.

The record behind these values is patent publication US20180353462A1, “[…] AGENTS […] FLAVONOID DERIVATIVES TARGETING KINASES, SIRTUINS AND ONCOGENIC AGENTS FOR THE TREATMENT OF CANCERS” (priority 2015, published 2018).
